Source: the supplement of paper PMC11061612

Tests used:
Test in all cases: combination Emax (second highest fraction inhibited in the dose matrix, 72 h); higher = more inhibition; extreme values may be limits of the assay
[1] = tested on: CAL-62 (Thyroid Gland Carcinoma)
Outline: (§1)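 Bliss excess equals the observed combination effect minus the expected value EA + EB − EA·EB, where EA and EB are the effects of each agent alone. Combination Emax is the second-highest inhibition within the matrix. Inhibition was scaled from CellTiter-Glo 2.0 luminescence, with 0 set by vehicle wells and 1 by blank wells, after 72 hours of two-drug dosing of cells plated in 1536-well plates.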

[2] = tested on: COLO-680N (Esophageal Squamous Cell Carcinoma)
Outline: as §1

[3] = tested on: FADU (Head and Neck Carcinoma)
Outline: as §1

[4] = tested on: GP5d (Colorectal Carcinoma)
Outline: as §1

[5] = tested on: HEC-1 (Endometrial Carcinoma)
Outline: as §1

IST-MES1 (Mesothelioma) = tested on: IST-MES1 (Mesothelioma)
Outline: as §1

[6] = tested on: LB996-RCC (Kidney Carcinoma)
Outline: as §1

[7] = tested on: LK-2 (Squamous Cell Lung Carcinoma)
Outline: as §1

[8] = tested on: MFE-280 (Endometrial Carcinoma)
Outline: as §1

[9] = tested on: NCI-H2342 (Lung Adenocarcinoma)
Outline: as §1

[10] = tested on: OPM-2 (Plasma Cell Myeloma)
Outline: as §1

[11] = tested on: PC-3_[JPC-3] (Lung Adenocarcinoma)
Outline: as §1

[12] = tested on: PSN1 (Pancreatic Carcinoma)
Outline: as §1

[13] = tested on: RCM-1 (Colorectal Carcinoma)
Outline: as §1

[14] = tested on: RKN (Other Solid Carcinomas)
Outline: as §1

SF268 (Low Grade Glioma) = tested on: SF268 (Low Grade Glioma)
Outline: as §1

SF539 (Glioblastoma) = tested on: SF539 (Glioblastoma)
Outline: as §1

[15] = tested on: SU-DHL-10 (B-Cell Non-Hodgkin's Lymphoma)
Outline: as §1

WM793B (Melanoma) = tested on: WM793B (Melanoma)
Outline: as §1

Compound | combination Emax [1] | combination Emax [2] | combination Emax [3] | combination Emax [4] | combination Emax [5] | combination Emax (IST-MES1 (Mesothelioma)) | combination Emax [6] | combination Emax [7] | combination Emax [8] | combination Emax [9] | combination Emax [10] | combination Emax [11] | combination Emax [12] | combination Emax [13] | combination Emax [14] | combination Emax (SF268 (Low Grade Glioma)) | combination Emax (SF539 (Glioblastoma)) | combination Emax [15] | combination Emax (WM793B (Melanoma))
CN(C)CCCOc1ccc(-c2ccc3ncc4c(c3c2)n(C2CCOCC2)c(=O)n4C)cn1 [AZD0156] + C=CCn1c(=O)c2cnc(Nc3ccc(N4CCN(C)CC4)cc3)nc2n1-c1cccc(C(C)(C)O)n1 [AZD1775] (first compound max 1 µM, partner max 1 µM) | 0.709 | 0.196 | 0.617 | 0.664 | 0.0682 | 0.207 | 0.801 | 0.898 | 0.55 | 0.162 | 0.805 | 0.393 | 0.462 | 0.518 | 0.263 | 0.225 | 1 | 0.936 | 0.452
CN(C)CCCOc1ccc(-c2ccc3ncc4c(c3c2)n(C2CCOCC2)c(=O)n4C)cn1 [AZD0156] + CCN(CCO)CCCOc1ccc2c(Nc3cc(CC(=O)Nc4cccc(F)c4)[nH]n3)ncnc2c1 [AZD2811] (first compound max 1 µM, 7x7, partner max 1 µM) | 0.182 | 0.0884 | 0.228 | 0.456 | 0.0528 | 0.172 | 0.362 | 0.834 | 0.47 | 0.145 | 0.436 | 0.101 | 0.362 | 0.161 | 0.132 | 0.142 | 0.394 | 0.835 | 0.323
CN(C)CCCOc1ccc(-c2ccc3ncc4c(c3c2)n(C2CCOCC2)c(=O)n4C)cn1 [AZD0156] + C[C@@H]1COCCN1C2=NC(=NC(=C2)C3(CC3)[S@](=N)(=O)C)C4=C5C=CNC5=NC=C4 [AZD6738] (first compound max 1 µM, 7x7, partner max 10 µM) | 0.755 | 0.267 | 0.758 | 0.883 | 0.363 | 0.176 | 0.581 | 0.501 | 0.335 | 0.166 | 0.776 | 0.329 | 0.504 | 0.864 | 0.206 | 0.497 | 0.929 | 0.979 | 0.891
C=CCn1c(=O)c2cnc(Nc3ccc(N4CCN(C)CC4)cc3)nc2n1-c1cccc(C(C)(C)O)n1 [AZD1775] + C[C@@H]1COCCN1C2=NC(=NC(=C2)C3(CC3)[S@](=N)(=O)C)C4=C5C=CNC5=NC=C4 [AZD6738] (first compound max 1 µM, partner max 10 µM) | 0.928 | 0.529 | 0.875 | 0.927 | 0.638 | 0.597 | 0.84 | 0.882 | 0.627 | 0.426 | 0.893 | 0.537 | 0.764 | 0.852 | 0.35 | 0.526 | 1 | 1 | 0.875
C=CCn1c(=O)c2cnc(Nc3ccc(N4CCN(C)CC4)cc3)nc2n1-c1cccc(C(C)(C)O)n1 [AZD1775] + O=C(c1cc(Cc2n[nH]c(=O)c3ccccc23)ccc1F)N1CCN(C(=O)C2CC2)CC1 [Olaparib] (first compound max 1 µM, partner max 10 µM) | 0.796 | 0.283 | 0.591 | 0.713 | 0.119 | 0.334 | 0.845 | 0.914 | 0.601 | 0.229 | 0.864 | 0.458 | 0.478 | 0.518 | 0.355 | 0.251 | 1 | 0.962 | 0.501
CCN(CCO)CCCOc1ccc2c(Nc3cc(CC(=O)Nc4cccc(F)c4)[nH]n3)ncnc2c1 [AZD2811] + C=CCn1c(=O)c2cnc(Nc3ccc(N4CCN(C)CC4)cc3)nc2n1-c1cccc(C(C)(C)O)n1 [AZD1775] (first compound max 1 µM, partner max 1 µM) | 0.787 | 0.178 | 0.608 | 0.735 | 0.141 | 0.27 | 0.842 | 0.887 | 0.521 | 0.262 | 0.809 | 0.413 | 0.401 | 0.461 | 0.281 | 0.245 | 1 | 1 | 0.497
CCN(CCO)CCCOc1ccc2c(Nc3cc(CC(=O)Nc4cccc(F)c4)[nH]n3)ncnc2c1 [AZD2811] + C[C@@H]1COCCN1C2=NC(=NC(=C2)C3(CC3)[S@](=N)(=O)C)C4=C5C=CNC5=NC=C4 [AZD6738] (first compound max 1 µM, 7x7, partner max 10 µM) | 0.741 | 0.309 | 0.654 | 0.845 | 0.212 | 0.345 | 0.602 | 0.698 | 0.436 | 0.213 | 0.71 | 0.304 | 0.397 | 0.828 | 0.206 | 0.381 | 0.955 | 0.985 | 0.769
CCN(CCO)CCCOc1ccc2c(Nc3cc(CC(=O)Nc4cccc(F)c4)[nH]n3)ncnc2c1 [AZD2811] + O=C(c1cc(Cc2n[nH]c(=O)c3ccccc23)ccc1F)N1CCN(C(=O)C2CC2)CC1 [Olaparib] (first compound max 1 µM, 7x7, partner max 10 µM) | 0.277 | 0.196 | 0.299 | 0.516 | 0.0832 | 0.29 | 0.315 | 0.765 | 0.339 | 0.166 | 0.363 | 0.205 | 0.251 | 0.247 | 0.228 | 0.178 | 0.502 | 0.745 | 0.359
C[C@@H]1COCCN1c1cc(C2([S@](C)(=N)=O)CC2)nc(-c2ccnc3[nH]ccc23)n1 [AZD6738] + O=C(c1cc(Cc2n[nH]c(=O)c3ccccc23)ccc1F)N1CCN(C(=O)C2CC2)CC1 [Olaparib] (first compound max 10 µM, 7x7, partner max 10 µM) | 0.899 | 0.392 | 0.775 | 0.823 | 0.143 | 0.353 | 0.675 | 0.485 | 0.403 | 0.208 | 0.75 | 0.359 | 0.5 | 0.623 | 0.228 | 0.407 | 0.935 | 0.944 | 0.822
Cc1cc2ncnn2cc1Nc1ncc2c(n1)n(C1CCOCC1)c(=O)n2C [AZD7648] + C=CCn1c(=O)c2cnc(Nc3ccc(N4CCN(C)CC4)cc3)nc2n1-c1cccc(C(C)(C)O)n1 [AZD1775] (first compound max 10 µM, partner max 1 µM) | 0.69 | 0.353 | 0.546 | 0.704 | 0.137 | 0.402 | 0.762 | 0.894 | 0.355 | 0.255 | 0.864 | 0.483 | 0.557 | 0.596 | 0.248 | 0.344 | 0.998 | 0.978 | 0.584
Cc1cc2ncnn2cc1Nc1ncc2c(n1)n(C1CCOCC1)c(=O)n2C [AZD7648] + CCN(CCO)CCCOc1ccc2c(Nc3cc(CC(=O)Nc4cccc(F)c4)[nH]n3)ncnc2c1 [AZD2811] (first compound max 10 µM, 7x7, partner max 1 µM) | 0.368 | 0.236 | 0.263 | 0.478 | 0 | 0.31 | 0.363 | 0.742 | 0.377 | 0.324 | 0.605 | 0.319 | 0.397 | 0.316 | 0.211 | 0.19 | 0.462 | 0.899 | 0.411
Cc1cc2ncnn2cc1Nc1ncc2c(n1)n(C1CCOCC1)c(=O)n2C [AZD7648] + CN(C)CCCOc1ccc(-c2ccc3ncc4c(c3c2)n(C2CCOCC2)c(=O)n4C)cn1 [AZD0156] (first compound max 10 µM, 7x7, partner max 1 µM) | 0.321 | 0.188 | 0.111 | 0.293 | 0.002 | 0.239 | 0.339 | 0.269 | 0.359 | 0.249 | 0.556 | 0.31 | 0.38 | 0.201 | 0.194 | 0.187 | 0.352 | 0.302 | 0.361
CS(=O)(=O)CCNCc1ccc(-c2ccc3ncnc(Nc4ccc(OCc5cccc(F)c5)c(Cl)c4)c3c2)o1 [Lapatinib] + Cn1cnc2c(F)c(Nc3ccc(Br)cc3Cl)c(C(=O)NOCCO)cc21 [Selumetinib] (first compound max 10 µM, 7x7, partner max 10 µM) | 0.477 | 0.408 |  |  |  | 0.55 |  | 0.485 | 0.274 | 0.257 | 0.533 | 0.653 | 0.748 | 0.754 | 0.369 |  | 0.601 |  | 
CCc1c2c(nc3ccc(O)cc13)-c1cc3c(c(=O)n1C2)COC(=O)[C@]3(O)CC [SN-38] + O=C(c1cc(Cc2n[nH]c(=O)c3ccccc23)ccc1F)N1CCN(C(=O)C2CC2)CC1 [Olaparib] (first compound max 0.3 µM, 7x7, partner max 10 µM) | 0.911 | 0.386 | 0.996 | 0.704 | 0.761 | 0.63 | 0.854 | 0.456 | 0.785 | 0.236 | 0.734 | 0.825 | 0.753 | 0.809 | 0.651 |  | 0.99 |  | 
